# Experimental data taken from patent US11654198B2, “Application of combination of polyethylene glycol and local anesthetic in non-narcotic analgesia” (JENKEM TECHNOLOGY CO., LTD. (TIANJIN), priority 2016, dated 2023).
# What was measured:
# SD rats [1] = test: Hot plate paw withdrawal time, rat plantar incision model (Example 31); assay type: in vivo
# Method: After SD rats inhale anesthesia (isoflurane), an incision of about 1 cm in length from the proximal end of the pelma to the toe is made: after the skin and fascia are cut, the plantar muscle is picked up with an ophthalmic forceps and cut longitudinally (maintaining the starting and ending point and attachment of muscles); pressing is carried out for hemostasis, physiological saline and test drugs are injected into the muscles of animal's legs, and then the pain threshold detection is performed by the hot plate method. Within 24 hours after the model is successful, the rats develop significant hyperalgesia. Qualified rats are randomly divided into 5 groups, 6 rats in each group, which are labeled as groups G1, G2, G3, G4 and G5, respectively. The plantar subcutaneous injection method for administration is used, and the grouping information of the experimental animals is shown in Table 8.
# (§1) Sensory block (hot plate paw withdrawal time): The sensory block of the rat is examined by a hot plate method, and the hot plate is heated to (56±1)° C., and one of the hind paws of the rat is placed on the hot plate, the other hind paw is in the laboratory room temperature condition, and the tested paw withdrawal time is observed and recorded. The average value of two to three times measured is recorded as a pain threshold. In order to avoid the damage of the experimental animal body, if the rat has no paw withdrawal in the hot plate experiment for more than 15 s, the paws should be removed from the hot plate, and the experimental result is recorded as 15 s. The time point for determining the paw withdrawal time of the hot plate is before administration, and 0.5 h, 1 h, 2 h, 4 h, 6 h, 8 h, 12 h, and 24 h after administration.
# SD rats [2] = test: Motor block four-level score, rat sciatica model (SNL) (Example 32); assay type: in vivo; design: key to motor function score: 1 = normal paw movement to 4 = complete loss, gait defect; settings: for motor function score: bupivacaine 8, conjugate 10/11/12 32/24/48 mg/kg
# Description: Intervertebral disc compression (SNL): This model is a pathological form that simulates clinical disc herniation. The specific method is to remove the autogenous caudal intervertebral disc tissue (annulus fibrosus and nucleus pulposus) form the rats and place the caudal intervertebral disc tissue between the proximal nerve root of the L5 dorsal root ganglion and the lower vertebral body to directly compress the L5 nerve root, wherein damage to the L5 nerve root or dorsal root ganglion should be avoided during the operation. 3 to 15 days after the model is successful, rats develop significant hyperalgesia, so the administration time we chose is between 3 days and 15 days.
# Qualified rats are randomly divided into 5 groups, 6 rats in each group, which are labeled as groups G1, G2, G3, G4 and G5, respectively. Administration by intramuscular injection around sciatic nerve is adopted, and the grouping information of the experimental animals is shown in Table 11.
# Motor block (four-level score): The exercise condition of each group of rats is evaluated by the motor block four-level scoring method. The scoring criteria are: paws can be dorsiflexed, stretched, valgus and other normal exercises, scored by 1 point; paws can be dorsiflexed, bendable or after the adduction, although the paws can be stretched, the stretching ability is weakened, scored by 2 points; the paw can perform dorsiflexion, but no longer has the ability to stretch, scored by 3 points; the paw completely loses the ability of dorsiflexion, curling and stretching, and the rats produce a gait defect, scored by 4 points. The time point for determining the withdrawal time of the hot plate is before administration, and 0.5 h, 1 h, 2 h, 4 h, 6 h, 8 h, 12 h, and 24 h after administration.
# SD rats [3] = test: Sensory block, hot plate paw withdrawal time, non-anesthetic analgesic effect of PEG-bupivacaine conjugate (Example 30); assay type: in vivo, rat; settings: for hot plate paw withdrawal time: conjugate 10/11/12 at 32/24/48 mg/kg (as bupivacaine)
# Method: Male Sprague-Dawley rats are used in the study, about 230-250 g when accepted, and acclimated for at least 7 days prior to the experiment. Two rats are raised in each cage and fed freely with feed and water. The environmental conditions of the breeding room are 23±2° C., and the relative humidity is 40% to 70%, alternating 12 hours of light and dark. […] The qualified rats are randomly divided into 4 groups, 4 rats in each group, which are labeled as groups G1, G2, G3, and G4, respectively. Administration by direct injection in the sciatic nerve is adopted, and with the rat's back facing up, the drug is injected around the right sciatic nerve trunk between the right hip and the right thigh.
# as §1, with “the hot plate. The other hind” for “the hot plate, the other hind”, “s, the rat should be” for “s, the paws should be”, “8 h, 10 h, 12 h,” for “8 h, 12 h,”
# [4] = 0 h (after surgery, before administration), bupivacaine 8, conjugate 10/11/12 32/24/48 mg/kg
# [5] = 0.5 h after plantar subcutaneous injection, bupivacaine 8, conjugate 10/11/12 32/24/48 mg/kg
# [6] = 1 h after plantar subcutaneous injection, bupivacaine 8, conjugate 10/11/12 32/24/48 mg/kg
# [7] = 2 h after plantar subcutaneous injection, bupivacaine 8, conjugate 10/11/12 32/24/48 mg/kg
# [8] = 4 h after plantar subcutaneous injection, bupivacaine 8, conjugate 10/11/12 32/24/48 mg/kg
# [9] = 6 h after plantar subcutaneous injection, bupivacaine 8, conjugate 10/11/12 32/24/48 mg/kg
# [10] = 8 h after plantar subcutaneous injection, bupivacaine 8, conjugate 10/11/12 32/24/48 mg/kg
# [11] = 12 h after plantar subcutaneous injection, bupivacaine 8, conjugate 10/11/12 32/24/48 mg/kg
# [12] = 24 h after plantar subcutaneous injection, bupivacaine 8, conjugate 10/11/12 32/24/48 mg/kg
# [13] = base value before surgery, bupivacaine 8, conjugate 10/11/12 32/24/48 mg/kg (as bupivacaine)
# [14] = conjugate 10/11/12 at 32/24/48 mg/kg
Compound,hot plate paw withdrawal time (SD rats [1]; [4]),hot plate paw withdrawal time (SD rats [1]; [5]),hot plate paw withdrawal time (SD rats [1]; [6]),hot plate paw withdrawal time (SD rats [1]; [7]),hot plate paw withdrawal time (SD rats [1]; [8]),hot plate paw withdrawal time (SD rats [1]; [9]),hot plate paw withdrawal time (SD rats [1]; [10]),hot plate paw withdrawal time (SD rats [1]; [11]),hot plate paw withdrawal time (SD rats [1]; [12]),hot plate paw withdrawal time (SD rats [1]; [13]),motor function score (SD rats [2]; 0.5 h),motor function score (SD rats [2]; 1 h),motor function score (SD rats [2]; 2 h),motor function score (SD rats [2]; 4 h),motor function score (SD rats [2]; 6 h),motor function score (SD rats [2]; 8 h),motor function score (SD rats [2]; 12 h),motor function score (SD rats [2]; 24 h),also measured
"8-Arm-PEG-Bupivacaine, 20K [bupivacaine conjugate 12]",1.89 s,8.13 s,7.21 s,6.12 s,2.49 s,2.34 s,2.10 s,1.92 s,1.76 s,5.81 s,1 ± 0,1 ± 0,1 ± 0,1 ± 0,1 ± 0,1 ± 0,1 ± 0,1 ± 0,"time after administration at which hot plate paw withdrawal time is significantly higher than vehicle group (SD rats [1]; bupivacaine 8, conjugate 10/11/12 32/24/48 mg/kg): ≤ 2 h; time the analgesic effect can reach (SD rats [1]; [14]): 2 h; effect on motor function of SD rats (SD rats [2]; [14]): does not affect the motor function; hot plate paw withdrawal time (SD rats [3]; 0.5 h after direct injection around sciatic nerve): 6.49 s; hot plate paw withdrawal time (SD rats [3]; 2 h after direct injection around sciatic nerve): 3.52 s; hot plate paw withdrawal time (SD rats [3]; 4 h after direct injection around sciatic nerve): 4.82 s; hot plate paw withdrawal time (SD rats [3]; 6 h after direct injection around sciatic nerve): 4.59 s; hot plate paw withdrawal time (SD rats [3]; 8 h after direct injection around sciatic nerve): 4.34 s; hot plate paw withdrawal time (SD rats [3]; 10 h after direct injection around sciatic nerve): 4.30 s; hot plate paw withdrawal time (SD rats [3]; 12 h after direct injection around sciatic nerve): 2.80 s; hot plate paw withdrawal time (SD rats [3]; 24 h after direct injection around sciatic nerve): 3.25 s; time after administration at which hot plate paw withdrawal time is significantly higher than vehicle group (SD rats [3]; conjugate 10/11/12 at 32/24/48 mg/kg, direct injection): ≤ 2 h; hot plate paw withdrawal time (SD rats [3]; l h after direct injection around sciatic nerve): 6.77 s"
CCCCN1CCCCC1C(=O)Nc1c(C)cccc1C (stereo not shown) [bupivacaine],1.02 s,7.21 s,6.91 s,1.30 s,1.51 s,1.32 s,2.41 s,1.41 s,1.45 s,4.70 s,1 ± 0,1.75 ± 0.5,1.75 ± 0.5,1.75 ± 0.5,1.75 ± 0.5,1.75 ± 0.5,1 ± 0,1 ± 0,–
